Reference: US20060020029A1, “Pharmaceutical compositions from ethnobotanicals” (priority 2004, published 2006)
In brackets after ≈: the same amount, converted by molar mass. Several values for one entry are separate records, joined by “and”; a condition that tells them apart may be missing. Equal entries are not always repeated. Where two headings read alike, the source gives them in different places.

How the values were obtained:
RSV B = assay: CPE assay, RSV-B in Hep-2 cells; type: cell-based, respiratory syncytial virus
MDCK cells = assay: Cytotoxicity in MDCK cells; conditions: isolated compounds
Hep-2 cells = assay: Cytotoxicity (MTS) in uninfected Hep-2 cells; conditions: isolated compounds
[1] = test system: Herpes simplex virus type 2 (MS-strain); assay: CPE assay, HSV-2 specificity; type: cell-based; conditions: CPE assay with MDCK or Vero cells
Experimental: (§1) To determine whether the fractions are specific RSV inhibitors rather than general antiviral agents, the inventors tested them against influenza type A/Shangdong/09/93 (H3N2), herpes simplex type 1 (MacItyre), and herpes simplex type 2 (MS) using the CPE assay system.
(§2) CJ4-16-4 was tested using influenza type A, herpes simplex virus type 1, and herpes simplex virus type 2 using the CPE assay with MDCK or Vero cells.

RSV (Long strain) = assay: CPE assay, RSV-Long in Hep-2 cells; type: cell-based, respiratory syncytial virus
[2] = test system: Herpes simplex virus type 1 (MacIntyre strain); assay: CPE assay, HSV-1 specificity; type: cell-based; conditions: CPE assay with MDCK or Vero cells
Experimental: as §1, §2

Vero cells = assay: Cytotoxicity (MTS) in uninfected Vero cells; conditions: isolated compounds
RSV-A2 = assay: CPE assay, RSV-A2 in Hep-2 cells; conditions: Hep-2 cells, CPE assay
Experimental: The cell line was propagated in MEM supplemented with 10% heat-inactivated fetal bovine serum (FBS) containing 100 μg/ml of antibiotics (streptomycin/penicillin). […] The overnight medium (MEM containing 10% FBS) was removed, and wells were rinsed twice with 1× phosphate buffer saline (PBS, 200 μl) before adding 10×TCID50 of RSV suspension in fresh medium (MEM plus 2% FBS) to each well, except for cell only wells. […] CellTiter 96 Aqueous Non-Radioactive Cell Proliferation Assay (Promega) was used to monitor the antiviral activity following the manufacturer's instruction. After incubation, the cells were rinsed twice with 200 μl of 1×PBS prior to the addition of 100 μl of fresh medium (MEM plus 10% FBS). […] The extent of cell viability was measured at 490 nm using an ELISA reader, and the absorbance was used to calculate percent inhibition. Antiviral activity of each EB fraction or ribavirin is expressed as IC50, which represents the concentration of the test substance required to reduce the virus infection (as measured by the destruction of the host cells) by 50%.
Hep-2 cells were used in the CPE assay to determine anti-RSV properties.

[3] = test system: RSV-Long (Cotton Rat adapted strain); assay: CPE assay, RSV-Long cotton rat adapted strain; type: cell-based, respiratory syncytial virus; conditions: Hep-2 cells, CPE assay
[4] = test system: Influenza A-Shangdong/09/93 (H3N2); assay: CPE assay, influenza A specificity; type: cell-based, influenza type A; conditions: CPE assay with MDCK or Vero cells
Experimental: as §1, §2

in vitro [5] = conditions: human
RSV-Long [6] = assay: Plaque reduction assay (PRA); type: cell-based; conditions: human respiratory syncytial virus, HEp-2; Table 3, plaque reduction assay
Experimental: The materials and methods used for PRA are as follows. […] The overlay was prepared by mixing 1 part of 1.2% SeaPlaque and 1 part 2×MEM containing 4% FBS, plus appropriate concentrations of each EB fraction or ribavirin. Each concentration of the EB fraction or ribavirin was tested in duplicate wells. After 7 days, the agarose was carefully removed and cells were rinsed twice with 2 ml of PBS. The cell monolayer was fixed using 0.2% crystal violet in 20% methanol at room temperature. After 30 minutes, the fixer was removed by washing with deionized water, and the plates were air-dried prior to counting plaques. The number of plaques obtained for each fraction or ribavirin was expressed as a percentage of the control. The percentage values obtained were used to calculate IC50 values.

RSV A2 = assay: Cotton rat RSV infection model, pulmonary titer
Experimental: All groups consisted of four randomly selected cotton rats. All test materials were administered intraperitoneally with once daily dosing. The placebo group was administered distilled water at volumes and schedules identical to the other groups receiving investigational test articles. In general, timing of administration of ribavarin to the ribavarin-treated group paralleled that of the other treatment groups except that initiation of dosing was on Day 1 for Experiments 1 and 2 and Day 0 for Experiment 3. The dose of ribavarin was 90 mg/kg/day in Experiments 1 and 3 and 180 mg/kg/day in Experiment 2. All animals were inoculated intranasally with approximately 100 median cotton rat infectious doses (CRID50) of RSV A2 on Day 0. Experiments were terminated on either Day 3 or 4 post-infection. […] On the day that the experiment was terminated, all CRs were sacrificed using CO2 to asphyxiate the animals. The lungs from the animals were subsequently removed. The lungs of sacrificed animals were removed, rinsed in sterile phosphate-buffered saline (PBS; pH 7.2) and weighed. Each set of lungs was then transpleurally lavaged using 3 ml of 2% FCS-MEM media. The resulting lung fractions were kept on ice until they were assayed for RSV. The lung fractions of animals from each group were tested for the levels of RSV present.

RSV-Long [7] = assay: Viral RNA analysis (RiboGreen); type: cell-based, respiratory syncytial virus; conditions: for RNA Concentration: three days
Experimental: The method for analysis of viral RNA is as follows. Six well plates were infected with 1 ml stock of RSV-Long (10×TCID50) diluted 1:20 in infection medium (DMEM+2% FBS). The plates were incubated in 37° C. incubators for 60 min, after which the inoculum was removed and the plates were rinsed. […] Each concentration was added in duplicate. […] After three days, the culture supernatants were transferred into clean conical tubes and subjected to centrifugation at low speed to remove cell debris. […] RNA was extracted using a commercial RNA extraction kit purchased from Epicentre Technologies (Madison, WI). The procedure was performed according to the manufacturer's instructions, and samples were stored at −20° C. The level of viral RNA in each sample was determined using the RiboGreen® RNA quantitative kit (Molecular Probes, Eugene, Oreg.) according the manufacturer's instructions.

RSV [8] = assay: Limited pretreatment of host cells, CPE assay; type: cell-based, respiratory syncytial virus; conditions: removed before infection
Experimental: A limited pretreatment of host cells with EB fractions was investigated as follows. […] The cells were incubated in fresh medium without the test article. After 7 days, the viral inhibition was evaluated using CPE assay protocol.

RSV-Long [9] = assay: Time of addition, CPE assay; type: cell-based, respiratory syncytial virus; conditions: human respiratory syncytial virus
Experimental: Determine the Time of Addition for EB Fractions. […] This activity is related to the life cycle of the virus and the step in the cycle where the compounds act. In this example, experiments were performed to investigate the effect of the time of addition of EB fractionated products on anti-RSV activity.
Mechanism of action studies were performed as follows. Mechanism of action studies were performed using CJ4-16-4 in a CPE assay with Hep-2 cells.

in vitro [10] = conditions: African green monkey
RSV [11] = assay: Viral yield assay (VYA); type: cell-based, respiratory syncytial virus
Experimental: The materials and methods used for VYA are as follows. […] Each concentration of the test articles or control drug was tested in triplicate wells. […] The aliquots from each of the eight wells of a given column were transferred to the first column of a fresh 96-well monolayer culture of Hep-2 cells. The contents were mixed and serially diluted across the remaining columns of the secondary plate. Each column of the original primary plate was diluted across a separate plate in this manner. The cultures were incubated for 7 additional days, and the end point was monitored by CPE assay as described above.

[12] = human respiratory syncytial virus, HEp-2, Table 2, extracted fractions, average of two or three experiments
[13] = 90 mg/kg/day B.I.D i.p. D0-D3, water, harvest day 4

## O=C(/C=C/c1ccc(O)c(O)c1)O[C@H]1[C@H](O)C[C@](O)(C(=O)O)C[C@H]1OC(=O)/C=C/c1ccc(O)c(O)c1 [CJ2-27-4, 4,5-dicaffeoylquinic acid]
RSV B; Hep-2 cells, CPE assay
  EC50, RSV-B (Washington): 0.218 µg/mL (≈ 0.422 µM)
MDCK cells
  CC50, MDCK: >200 µg/mL
Hep-2 cells
  CC50, Hep 2: >200 µg/mL
[1]
  EC50, Herpes simplex virus type 2 (MS-strain): >50 µg/mL
RSV (Long strain); Hep-2 cells, CPE assay
  EC50, RSV-Long: 0.052 µg/mL (≈ 0.101 µM)
[2]
  EC50, Herpes simplex virus type 1 (MacIntyre strain): >50 µg/mL
Vero cells
  CC50, Vero: >200 µg/mL
RSV-A2
  EC50, RSV-A2: 0.521 µg/mL (≈ 1.01 µM)
[3]
  EC50, RSV-Long (Cotton Rat adapted strain): 5.519 µg/mL (≈ 10.7 µM)
[4]
  EC50, Influenza A-Shangdong/09/93 (H3N2): >50 µg/mL

## NC(=O)c1ncn([C@@H]2O[C@H](CO)[C@@H](O)[C@H]2O)n1 [Ribavirin]
In vitro [5]
  CC50 at 7 days: 76.4 ± 4.4 µg/mL (≈ 313 µM)
RSV B; [12]
  IC50: 3.2 ± 0.5 µg/mL (≈ 13.1 µM)
RSV-Long [6]
  IC50: 3.84 µg/mL (≈ 15.7 µM)
RSV A2; 90 mg/kg/day B.I.D i.p. D0-D3, vs placebo
  Reduction: 2.9 Log 10
RSV A2; [13]
  RSV Pulmonary Titer Mean ± SD: 1.5 ± 1.8 log10/g lung
  RSV Pulmonary Titer in individual CR (A-D): 2.8 log10/g lung and 3.3 log10/g lung and 0 log10/g lung (2×)
RSV A2; Experiment 1
  reduction of mean viral titer: 2.5 logs
RSV A2; Experiment 1: 100 mg/kg/day i.p. (ribavirin 90 mg/kg/day), harvest Day 4
  RSV pulmonary Mean Titers ± SD: 3.1 ± 0.29 log 10
RSV A2; Experiment 2
  reduction of mean viral titer: 2.5 logs
RSV A2; Experiment 2: 100 mg/kg/day i.p. from Day -1 (ribavirin 180 mg/kg/day), harvest Day 3
  RSV pulmonary Mean Titers ± SD: 2.3 ± 0.4 log 10
RSV A2; Experiment 3
  reduction of mean viral titer: 2.5 logs
RSV A2; Experiment 3: 250 mg/kg/day i.p. from Day -1 (ribavirin 90 mg/kg/day), harvest Day 3
  RSV pulmonary Mean Titers ± SD: 2.2 ± 1.5 log 10
RSV A2; three experiments
  Overall Mean Titer: 2.53 ± 0.73 log 10
  reduction of overall mean viral titer: 2.5 logs
RSV A2; three experiments combined
  animals with no detectable virus: 1 out of 12
RSV (Long strain); [12]
  IC50: 3.8 ± 0.2 µg/mL (≈ 15.6 µM)
RSV-Long [7]; drug concentration 1 μg/ml
  RNA Concentration: 450 ng/mL
RSV-Long [7]; drug concentration 20 μg/ml
  RNA Concentration: 225 ng/mL
RSV-Long [7]; drug concentration increased from 1 to 20 μg/ml
  reduction of viral RNA: 2 fold
RSV [8]; human respiratory syncytial virus, pre-treatment time 4 hrs, read-out: IC50
  IC50: > 50 µg/mL
RSV [8]; pre-treatment time 0 hrs
  IC50: >50 µg/mL
RSV [8]; pre-treatment time 8 hrs
  IC50: >50 µg/mL
RSV [8]; pre-treatment time 24 hrs
  IC50: >50 µg/mL
RSV-Long [9]; addition 0 h, 10×TCID50 RSV-Long, Hep-2
  IC50: 3.6 ± 0.36 µg/mL (≈ 14.7 µM)
RSV-Long [9]; addition +7 h post-infection
  IC50: 3.9 ± 0.64 µg/mL (≈ 16 µM)
RSV-Long [9]; addition +26 h post-infection
  IC50: 4.43 ± 0.88 µg/mL (≈ 18.1 µM)
In vitro [10]
  CC50 at 7 days: > 100 µg/mL
RSV [11]; 3.1 μg/ml
  Mean Titer: 3 log 10
  Reduction of viral titer: 1 log10
RSV [11]; 25.0 μg/ml
  Mean Titer: 2 log 10
  Reduction of viral titer: 2 log10
